1 molecule from patent US10898434B2, “Single-walled carbon nanotube-assisted antibiotic delivery and imaging techniques” (Texas Christian University, priority 2018, dated 2021) can be followed below.

Molecules are shown by their SMILES.

Holding throughout (type): cell-based, Staphylococcus epidermidis
Experiment [1] has as its system S. epidermidis. In words: Colony count (colony formation) assay. To be noted: 100 μl stock solution, 24 h at 37° C. On the procedure: Using S. epidermidis broth (McFarland 0.5 standard), 100 μl was placed in the center of the agar plate. 100 μl of the respective antibacterial stock solution is added to the center. Bacteria was spread through the Petri dish and the plates were further incubated for 24 h at 37° C. Pictures of the plates were uploaded onto the OpenCFU software to count the number of colonies grown on the plate. Two plates were prepared for each antibacterial treatment with corresponding controls.

Experiment [2] relates to S. epidermidis. In words: Disk diffusion (zone inhibition) assay. To be noted: 2 and 4 mg doses; compared to non-treatment control; 24 h at 37° C. On the procedure:
S. epidermidis broth of McFarland 0.5 standard (absorption of 0.08 to 0.1) was created using Mueller Hilton Broth. This standard stabilized the cell count at an approximate 1×10^8 CFU/mL Dilution was plated within 15 minutes of standardization. Following the proper aseptic techniques, 0.2 mL of bacterial broth was placed in the center of prepared agar dish. A sterile bacteria spreader was used to evenly spread the bacteria throughout the plate to create a lawn.
Two different dosages of the antibacterial solutions were tested to increase the breadth and reliability of data. […] Petri dishes are incubated for 24 h at 37° C., then the zones of inhibition were measured with the inclusion of disk diameter in the measurements.
The statistical analysis performed in this work confirm the significance of the observed results for diffusion discs performed at different amounts of SWCNT/antibiotic complex loaded onto discs. […] When the p-value of the analysis is lower than the confidence level chosen, the hypothesis is proven false and a significant difference and variation is detected.
The dataset is analyzed using a comparison of means function by assigning a mean of the control group and comparing it to the means of each of the treatment groups. […]
In general terms: In agar diffusion tests the substance spreads into inoculated agar from a disc or well.

Experiment [3] concerns S. epidermidis. In words: Turbidity assay (absorption at 600 nm). To be noted: serial dilution, 24 h at 37° C. On the procedure:
A serial dilution (using the factor of 2) of antibacterial solutions was conducted in 12-well plates starting with 200 μL of antibacterial solution was placed in first well. 850 μl of broth and 50 μl of bacterial broth were added to each well plate. The concentrations tested for doxycycline were 1, 0.5, 0.25, 0.125 and 0 mg/mL. The concentrations tested for methicillin are 1.25, 0.625,0.313, […] and 0 mg/mL. Plates were that incubated at 37° C. for 24 h. The solutions were transferred to cuvettes, and their turbidity is measured using a Cary 500 spectrophotometer with the broth used as a baseline. Two wells were prepared for each concentration.

Take `COc1cccc(OC)c1C(=O)N[C@@H]1C(=O)N2[C@@H]1SC(C)(C)[C@@H]2C(=O)O` [methicillin]: the “colony count (in words)” value in the experiment on S. epidermidis [1] is “complete lack of inhibition response”. For the same molecule, in the experiment on S. epidermidis [2], the “antibacterial effect (zone of inhibition) of antibiotic alone” value is reported as “no antibiotic activity”. In addition, the “turbidity of bacterial media (absorption at 600 nm)” value with S. epidermidis [3] is “some bacterial inhibition”.
